In test [1] the target is T1, main protease (M^pro) of SARS-COV-2 (Severe acute respiratory syndrome coronavirus 2, UniProt P0DTD1). Description: TEM observation of the reaction of MCAP-AuNP with M^pro after M^pro inhibitor treatment. It is filed as biochemical. To be noted: TEM images, FIG. 10B-10D.
The target of test [2] is T1, main protease (M^pro) of SARS-COV-2. Description: biochemical.

Each structure is given as a SMILES string.

For the molecule `COc1ccc([C@@H]2CC(=O)c3c(O)cc(O)cc3O2)cc1O` [hesperetin], the “activity of M^pro after M^pro inhibitor treatment (effect on MCAP-AuNP, TEM image)” value in test [1] is on record as “inhibited”. This molecule had an IC50 in test [2] of 43.1 µM.

As to `CC(=O)N[C@@H](CC(C)C)C(=O)N[C@@H](CC(C)C)C(=O)N[C@H](C=O)CCCNC(=N)N` [leupeptin], the “activity of M^pro after M^pro inhibitor treatment (effect on MCAP-AuNP, TEM image)” value in test [1] was “inhibited”. The molecule further showed an IC50 in test [2] of 28.6 µM.

In the case of `Cc1cccc(C)c1OCC(=O)N[C@@H](Cc1ccccc1)[C@@H](O)C[C@H](Cc1ccccc1)NC(=O)[C@H](C(C)C)N1CCCNC1=O` [lopinavir], in test [1], the “activity of M^pro after M^pro inhibitor treatment (effect on MCAP-AuNP, TEM image)” value is “inhibited”. In addition, in test [2], the IC50 was found to be 10.7 µM.

(Values after US20250298028A1, “METHOD FOR SCREENING DRUGS FOR TREATING MULTIPLE-VARIANT CORONAVIRUS DISEASE” (KOREA UNIVERSITY RESEARCH AND BUSINESS FOUNDATION, priority 2022, published 2025).)
